Here are results for 18 molecules from patent publication US8163894B2, “DNA for eukaryotic expression of CymR” (National Research Council of Canada, priority 2001, dated 2012).

The first data set concerns CymR-mediated expression (P2-cymlacZ fusion system). Description: Induction of expression in the P2-cymlacZ fusion system by candidate effectors. In kind it is cell-based, Pseudomonas putida.
Conditions: not given
An excerpt: The need to solubilize p-cumate (p-cumic acid) in organic solvent (e.g. ethanol or dimethyl formamide) is a great disadvantage. The present invention thus provides water-soluble effectors as well as possibly expanding the spectrum of inducers beyond p-cumate. At first, cumic alcohol, 4-methyl benzylalcohol, ethyltoluene, indole-2-carboxylic acid, indole-3-carboxylic acid, benzoic acid, 3- and 4-hydroxybenzoic acids, 3,4-dihyroxybenzoic acid and 2,4-dihydrobenzoic acid were tried. […] In this P2-cymlacZ fusion system, the threshold cumate concentration for induction is in the order of 0.002 millimolar (mM).
The sodium salt of cumic acid was also tested vs cumic acid (taken as cumate).
Both sodium benzoate and sodium toluate are ineffective.
For `O=C(O)c1ccc(O)c(O)c1` [3,4-dihyroxybenzoic acid], the “ability to act as inducer” value is listed as “none of these compounds could act as effective inducers”. With `O=C(O)c1cccc(O)c1` [3-hydroxybenzoic acid, 3- and 4-hydroxybenzoic acids], the “ability to act as inducer” value is given as “none of these compounds could act as effective inducers”. `Cc1ccc(CO)cc1` [4-methyl benzylalcohol]: the “ability to act as inducer” value is “none of these compounds could act as effective inducers”.

Turning to `CCc1ccc(C(=O)[O-])cc1.[Na+]` [Na^+ 4-ethylbenzoate], the “ability to act as inducer” value is given as “acts as an inducer” and the “response compared with parental cumate” value was “not as good as the parental cumate”. Regarding `O=C(O)c1ccccc1` [benzoic acid, Benzoic acid], the “ability to act as inducer” value was “none of these compounds could act as effective inducers”. Consider `CC(C)c1ccc(CO)cc1` [cumic alcohol], for which the “ability to act as inducer” value is reported as “none of these compounds could act as effective inducers”. Same read-out and setting: the entry for `O=C(O)c1cc2ccccc2[nH]1` [indole-2-carboxylic acid] is “none of these compounds could act as effective inducers”; for `O=C(O)c1c[nH]c2ccccc12` [indole-3-carboxylic acid] it is “none of these compounds could act as effective inducers”. Still for that read-out and setting: the entry for `O=C([O-])c1ccccc1.[Na+]` [sodium benzoate] is “ineffective”. For the molecule `CC(C)c1ccc(C(=O)[O-])cc1.[Na+]` [sodium salt of cumic acid], the “threshold of concentration giving a response, vs cumic acid” value is recorded as “did not change appreciably”. With Na^+ trimethyl cumate, the “response compared with parental cumate” value was “not as good as the parental cumate”. As for ethyltoluene, the “ability to act as inducer” value is “none of these compounds could act as effective inducers”. Take sodium toluate: the “ability to act as inducer” value is “ineffective”.

The same data set, now with this note: 0.02 mM.
Take `CN(C)c1ccc(C(=O)O)cc1` [DM PABA, Di-methyl p-aminobenzoic acid]: the “ability to act as inducer” value is reported as “effective inducers”.

The data set is the same for the next values; noted with them: 0.1 mM.
As for `CN(C)c1ccc(C(=O)O)cc1` [DM PABA, Di-methyl p-aminobenzoic acid], the “ability to act as inducer” value is “just as good an inducer as parent cumate”. As for Na^+ trimethyl cumate, the “ability to act as inducer” value is on record as “effective inducer”.

For another data set, the system named is 293 CuO-GFP clone 13. The data set can be described thus: Testing of cumate analogues as effector molecule (FIG. 16). In kind it is cell-based.
Conditions: not given
An excerpt:
Of course cumate can be substituted for various cumate analogues also referred to as effector molecule as described before.
The Deposits were received by the authority on Apr. 10, 2002, and were given accession number IDA-100402-1 and IDA-100402-2, respectively. 293 CuO-GFP clone 13 was also deposited on Apr. 10, 2002 in the same IDA and was given accession number IDA-100401-3.
Take `CCCc1ccc(C(=O)O)cc1` [C4, p-Propylbenzoic acid]: the “activity as activator (effector molecule)” value (“activity as activator” for short) is on record as “good activators”. Regarding `CC(C)Cc1ccc(C(=O)O)cc1` [C6, p-isobutylbenzoic acid], the “activity as activator” value was “good activators”.

With `CN(C)c1ccc(C(=O)O)cc1` [C11, p-N-dimethylaminobenzoic acid], the “activity as activator” value was “good activators”.

For `CCNc1ccc(C(=O)O)cc1` [C13, p-N-ethylaminobenzoic acid], the “activity as activator” value was “good activators”.

Test system in a further data set: not listed separately
The data set can be described thus: Water solubility of effectors.
Conditions: not given
In kind it is physicochemical.
As to `CC(C)c1ccc(C(=O)[O-])cc1.[Na+]` [sodium salt of cumic acid], the water solubility entry is given as “water-soluble”.
